From publication PMC5218480 (PLoS ONE, 2017)

Test system: MV-4-11 cells
Assay: Gene expression microarray analysis (Affymetrix PrimeView) and GSEA
Assay type: cell-based, human
Parameters: RFU PODN (11730768_x_at) / Fold change /veh PODN (11730768_x_at) / RFU LINC00158 (11744669_a_at) / Fold change /veh LINC00158 (11744669_a_at) / RFU DUSP10 (11751237_a_at) / Fold change /veh DUSP10 (11751237_a_at) / RFU ID3 (11757404_x_at) / Fold change /veh ID3 (11757404_x_at) / RFU PLEKHG5 (11737974_s_at) / Fold change /veh PLEKHG5 (11737974_s_at) / RFU LRRC4B (11730491_at) / Fold change /veh LRRC4B (11730491_at) / RFU GIMAP4 (11747438_a_at) / Fold change /veh GIMAP4 (11747438_a_at) / RFU KRT8 (11758183_x_at) / Fold change /veh KRT8 (11758183_x_at) / RFU CNN1 (11734310_a_at) / Fold change /veh CNN1 (11734310_a_at) / RFU VPS37D (11726825_at) / Fold change /veh VPS37D (11726825_at) / RFU C10orf10 (11716522_x_at) / Fold change /veh C10orf10 (11716522_x_at) / RFU KIR2DL2 /// KIR2DL4 /// KIR2DL5A /// KIR2DL5B /// KIR2DS1 /// KIR2DS2 /// KIR2DS3 /// KIR2DS4 /// KIR3DL3 /// KIR3DL3 /// KIR3DS1 (11738374_at) / Fold change /veh KIR2DL2 /// KIR2DL4 /// KIR2DL5A /// KIR2DL5B /// KIR2DS1 /// KIR2DS2 /// KIR2DS3 /// KIR2DS4 /// KIR3DL3 /// KIR3DL3 /// KIR3DS1 (11738374_at) / RFU C1QL1 (11718748_at) / Fold change /veh C1QL1 (11718748_at) / RFU TMPRSS4 (11747572_a_at) / Fold change /veh TMPRSS4 (11747572_a_at) / RFU HAMP (11756126_x_at) / Fold change /veh HAMP (11756126_x_at) / RFU RNFT2 (11725882_a_at) / Fold change /veh RNFT2 (11725882_a_at) / RFU NR4A2 (11747474_a_at) / Fold change /veh NR4A2 (11747474_a_at) / RFU ABCC12 (11746883_a_at) / Fold change /veh ABCC12 (11746883_a_at) / RFU TMEM136 (11760407_x_at) / Fold change /veh TMEM136 (11760407_x_at) / RFU CLDN22 /// WWC2 (11732394_at) / Fold change /veh CLDN22 /// WWC2 (11732394_at) / RFU HLA-DPB1 (11760878_x_at) / Fold change /veh HLA-DPB1 (11760878_x_at) / RFU SPINT1 (11716480_a_at) / Fold change /veh SPINT1 (11716480_a_at) / RFU GAP43 (11754022_s_at) / Fold change /veh GAP43 (11754022_s_at) / RFU A4GNT (11735810_at) / Fold change /veh A4GNT (11735810_at) / RFU PRB3 (11715151_x_at) / Fold change /veh PRB3 (11715151_x_at) / RFU TUBB4B (11761932_at) / Fold change /veh TUBB4B (11761932_at) / RFU CAPN14 (11732068_a_at) / Fold change /veh CAPN14 (11732068_a_at) / RFU TMCC2 (11721928_a_at) / Fold change /veh TMCC2 (11721928_a_at) / RFU IRGQ (11745062_a_at) / Fold change /veh IRGQ (11745062_a_at) / RFU FAM174B (11720279_a_at) / Fold change /veh FAM174B (11720279_a_at) / RFU TMPRSS4 (11748680_a_at) / Fold change /veh TMPRSS4 (11748680_a_at) / RFU FAM212B (11763350_a_at) / Fold change /veh FAM212B (11763350_a_at) / RFU PLEKHG5 (11743358_a_at) / Fold change /veh PLEKHG5 (11743358_a_at) / RFU ZSCAN30 (11745921_a_at) / Fold change /veh ZSCAN30 (11745921_a_at) / RFU CMKLR1 (11741424_a_at) / Fold change /veh CMKLR1 (11741424_a_at) / RFU LOC101060620 /// MAPK8IP1 (11723275_at) / Fold change /veh LOC101060620 /// MAPK8IP1 (11723275_at) / RFU SPTSSB (11747773_x_at) / Fold change /veh SPTSSB (11747773_x_at) / RFU PRSS12 (11739890_at) / Fold change /veh PRSS12 (11739890_at) / RFU BIN1 (11741810_x_at) / Fold change /veh BIN1 (11741810_x_at) / RFU WNT11 (11732464_a_at) / Fold change /veh WNT11 (11732464_a_at) / RFU C10orf10 (11716521_a_at) / Fold change /veh C10orf10 (11716521_a_at) / RFU C5orf56 (11738089_at) / Fold change /veh C5orf56 (11738089_at) / RFU CYB561 (11721691_x_at) / Fold change /veh CYB561 (11721691_x_at) / RFU ANKRD19P (11752326_a_at) / Fold change /veh ANKRD19P (11752326_a_at) / RFU OR2T12 /// OR2T33 /// OR2T8 (11738714_s_at) / Fold change /veh OR2T12 /// OR2T33 /// OR2T8 (11738714_s_at) / RFU VCAN (11748164_a_at) / Fold change /veh VCAN (11748164_a_at) / RFU JSRP1 (11732532_at) / Fold change /veh JSRP1 (11732532_at) / RFU KRTAP10-11 (11738290_x_at) / Fold change /veh KRTAP10-11 (11738290_x_at) / RFU MYO3A (11730013_a_at) / Fold change /veh MYO3A (11730013_a_at) / RFU EBF3 (11725865_a_at) / Fold change /veh EBF3 (11725865_a_at) / RFU CAMK2N1 (11719241_x_at) / Fold change /veh CAMK2N1 (11719241_x_at) / RFU C5orf56 (11738088_a_at) / Fold change /veh C5orf56 (11738088_a_at) / RFU OLFML3 (11715873_a_at) / Fold change /veh OLFML3 (11715873_a_at) / RFU LOC100653217 /// NTM (11731650_a_at) / Fold change /veh LOC100653217 /// NTM (11731650_a_at) / RFU MAPK11 (11762145_a_at) / Fold change /veh MAPK11 (11762145_a_at) / RFU FIZ1 (11724087_x_at) / Fold change /veh FIZ1 (11724087_x_at) / RFU OASL (11726364_x_at) / Fold change /veh OASL (11726364_x_at) / RFU SOX15 (11748057_x_at) / Fold change /veh SOX15 (11748057_x_at) / RFU CD79A (11719716_a_at) / Fold change /veh CD79A (11719716_a_at) / RFU HIST1H1D (11736915_at) / Fold change /veh HIST1H1D (11736915_at) / RFU CASKIN2 (11723855_a_at) / Fold change /veh CASKIN2 (11723855_a_at) / RFU LOC730098 (11760151_x_at) / Fold change /veh LOC730098 (11760151_x_at) / RFU OR4N2 (11742367_at) / Fold change /veh OR4N2 (11742367_at) / RFU PRRT2 (11749266_a_at) / Fold change /veh PRRT2 (11749266_a_at) / RFU SNX32 (11753110_a_at) / Fold change /veh SNX32 (11753110_a_at) / RFU CDHR5 (11726645_a_at) / Fold change /veh CDHR5 (11726645_a_at) / RFU RCAN1 (11760418_a_at) / Fold change /veh RCAN1 (11760418_a_at) / RFU FAM167A (11723789_a_at) / Fold change /veh FAM167A (11723789_a_at) / RFU FAM26E (11764081_at) / Fold change /veh FAM26E (11764081_at) / RFU ISYNA1 (11749810_s_at) / Fold change /veh ISYNA1 (11749810_s_at) / RFU ACY1 (11761880_at) / Fold change /veh ACY1 (11761880_at) / RFU 11764098_at / Fold change /veh 11764098_at / RFU SAMD14 (11745864_x_at) / Fold change /veh SAMD14 (11745864_x_at) / RFU NPB (11741838_a_at) / Fold change /veh NPB (11741838_a_at) / RFU TMPRSS6 (11731388_a_at) / Fold change /veh TMPRSS6 (11731388_a_at) / RFU KRTAP10-2 (11738614_at) / Fold change /veh KRTAP10-2 (11738614_at) / RFU ARHGAP8 /// PRR5-ARHGAP8 (11727945_x_at) / Fold change /veh ARHGAP8 /// PRR5-ARHGAP8 (11727945_x_at) / RFU KRTAP5-7 /// NADSYN1 (11734609_at) / Fold change /veh KRTAP5-7 /// NADSYN1 (11734609_at) / RFU RASL12 (11751679_a_at) / Fold change /veh RASL12 (11751679_a_at) / RFU CDKN2B (11736163_a_at) / Fold change /veh CDKN2B (11736163_a_at) / RFU PRF1 (11729649_at) / Fold change /veh PRF1 (11729649_at) / RFU, ZNF638 /// ZNF638-IT1 / Fold change vs veh, ZNF638 /// ZNF638-IT1 / RFU, PANK3 / Fold change vs veh, PANK3 / RFU, SH3YL1 / Fold change vs veh, SH3YL1 / RFU, ZEB2 / Fold change vs veh, ZEB2 / RFU, NRIP1 / Fold change vs veh, NRIP1 / RFU, PTTG1IP / Fold change vs veh, PTTG1IP / RFU, CAPN2 / Fold change vs veh, CAPN2 / RFU, MED14 / Fold change vs veh, MED14 / RFU, SNORA58 / Fold change vs veh, SNORA58 / RFU, C1orf63 / Fold change vs veh, C1orf63 / RFU, LRRFIP1 / Fold change vs veh, LRRFIP1 / RFU, NDUFAF7 / Fold change vs veh, NDUFAF7 / RFU, SLC12A2 / Fold change vs veh, SLC12A2 / RFU, IBTK / Fold change vs veh, IBTK / RFU, ESF1 / Fold change vs veh, ESF1 / Fold change vs veh, TMEM50B / RFU, TAOK1 / Fold change vs veh, TAOK1 / RFU, ACBD3 / Fold change vs veh, ACBD3 / RFU, TMA16 / Fold change vs veh, TMA16 / RFU, RWDD3 / Fold change vs veh, RWDD3 / RFU, BCAT1 / Fold change vs veh, BCAT1 / RFU, EDEM3 / Fold change vs veh, EDEM3 / RFU, TMEM33 / Fold change vs veh, TMEM33 / RFU, WDR75 / Fold change vs veh, WDR75 / RFU, AHCTF1 / Fold change vs veh, AHCTF1 / RFU, TFRC / Fold change vs veh, TFRC / RFU, ZDHHC17 / Fold change vs veh, ZDHHC17 / RFU, NOM1 / Fold change vs veh, NOM1 / RFU, ARL8B / Fold change vs veh, ARL8B / RFU, ZBTB11 / Fold change vs veh, ZBTB11 / RFU, TAMM41 / Fold change vs veh, TAMM41 / RFU, KIAA1704 /// LOC100996395 / Fold change vs veh, KIAA1704 /// LOC100996395 / RFU, ING1 / Fold change vs veh, ING1 / RFU, TRMT61B / Fold change vs veh, TRMT61B / RFU, FUBP3 / Fold change vs veh, FUBP3 / RFU, TP53 / Fold change vs veh, TP53 / RFU, TNKS2 / Fold change vs veh, TNKS2 / RFU, ZFP14 / Fold change vs veh, ZFP14 / RFU, ACTR2 / Fold change vs veh, ACTR2 / RFU, PPP3R1 / Fold change vs veh, PPP3R1 / RFU, PIK3R1 / Fold change vs veh, PIK3R1 / RFU, HNRNPA1 / Fold change vs veh, HNRNPA1 / RFU, RNF170 / Fold change vs veh, RNF170 / RFU, ZNF28 / Fold change vs veh, ZNF28 / RFU, RNGTT / Fold change vs veh, RNGTT / RFU, OGT / Fold change vs veh, OGT / RFU, BRD1 / Fold change vs veh, BRD1 / RFU, MARS / Fold change vs veh, MARS / RFU, ZNF655 / Fold change vs veh, ZNF655 / RFU, FAHD1 / Fold change vs veh, FAHD1 / RFU, BDP1 / Fold change vs veh, BDP1 / RFU, LRRCC1 / Fold change vs veh, LRRCC1 / RFU, ARID1A / Fold change vs veh, ARID1A / RFU, ZNF146 / Fold change vs veh, ZNF146 / RFU, ZNF330 / Fold change vs veh, ZNF330 / RFU, GPN3 / Fold change vs veh, GPN3 / RFU, C9orf123 / Fold change vs veh, C9orf123 / RFU, N4BP2L2 / Fold change vs veh, N4BP2L2 / RFU, ARFIP1 / Fold change vs veh, ARFIP1 / RFU, FAM179B / Fold change vs veh, FAM179B / RFU, BCL10 / Fold change vs veh, BCL10 / RFU, UHRF1BP1L / Fold change vs veh, UHRF1BP1L / RFU, BET1 / Fold change vs veh, BET1 / RFU, CNOT2 / Fold change vs veh, CNOT2 / RFU, ZNF268 / Fold change vs veh, ZNF268 / Fold change vs veh, ZNF507 / RFU, DGCR2 / Fold change vs veh, DGCR2 / RFU, WDSUB1 / Fold change vs veh, WDSUB1 / Fold change vs veh, HSP90B1 /// MIR3652 / RFU, ADSS / Fold change vs veh, ADSS / RFU, GK / Fold change vs veh, GK / RFU, ZNF148 / Fold change vs veh, ZNF148 / RFU, TAF9 / Fold change vs veh, TAF9 / RFU, SLC1A5 / Fold change vs veh, SLC1A5 / RFU, SLMO2 / Fold change vs veh, SLMO2 / RFU, ABCC4 / Fold change vs veh, ABCC4 / RFU, LOC101060439 /// RAP1B / Fold change vs veh, LOC101060439 /// RAP1B / RFU, RFX7 / Fold change vs veh, RFX7 / RFU, GTPBP10 / Fold change vs veh, GTPBP10 / RFU, CNEP1R1 / Fold change vs veh, CNEP1R1 / RFU, BIVM-ERCC5 /// ERCC5 / Fold change vs veh, BIVM-ERCC5 /// ERCC5 / RFU, ILF3 / Fold change vs veh, ILF3 / RFU 11762660_at / Fold change /veh 11762660_at / RFU VCAN (11757783_s_at) / Fold change /veh VCAN (11757783_s_at) / RFU DDX43 (11728927_at) / Fold change /veh DDX43 (11728927_at) / RFU KRT8 (11758188_x_at) / Fold change /veh KRT8 (11758188_x_at) / RFU NKD1 (11759106_at) / Fold change /veh NKD1 (11759106_at) / RFU SRD5A1 (11742802_a_at) / Fold change /veh SRD5A1 (11742802_a_at) / RFU TPSAB1 /// TPSB2 (11721975_s_at) / Fold change /veh TPSAB1 /// TPSB2 (11721975_s_at) / RFU GSTM3 (11746129_a_at) / Fold change /veh GSTM3 (11746129_a_at) / RFU IL23R (11737362_x_at) / Fold change /veh IL23R (11737362_x_at) / RFU TMEM51 (11727254_a_at) / Fold change /veh TMEM51 (11727254_a_at) / RFU PIWIL2 (11732686_x_at) / Fold change /veh PIWIL2 (11732686_x_at) / RFU ORM1 (11744905_x_at) / Fold change /veh ORM1 (11744905_x_at) / RFU CCDC152 (11743942_at) / Fold change /veh CCDC152 (11743942_at) / RFU ECM1 (11717891_a_at) / Fold change /veh ECM1 (11717891_a_at) / RFU IL23R (11748794_a_at) / Fold change /veh IL23R (11748794_a_at) / RFU TNFAIP8L3 (11732012_x_at) / Fold change /veh TNFAIP8L3 (11732012_x_at) / RFU MBOAT4 (11741988_at) / Fold change /veh MBOAT4 (11741988_at) / RFU 11764193_at / Fold change /veh 11764193_at / RFU TMEM53 (11763286_at) / Fold change /veh TMEM53 (11763286_at) / RFU MAGEB2 (11727129_at) / Fold change /veh MAGEB2 (11727129_at) / RFU TMEM200A (11744735_a_at) / Fold change /veh TMEM200A (11744735_a_at) / RFU CCDC152 (11751479_a_at) / Fold change /veh CCDC152 (11751479_a_at) / RFU FAM211A (11726209_a_at) / Fold change /veh FAM211A (11726209_a_at) / RFU RGS16 (11746705_a_at) / Fold change /veh RGS16 (11746705_a_at) / RFU VCAN (11755009_s_at) / Fold change /veh VCAN (11755009_s_at) / RFU RHOB (11743442_s_at) / Fold change /veh RHOB (11743442_s_at) / RFU RGS16 (11720943_a_at) / Fold change /veh RGS16 (11720943_a_at) / RFU RGS16 (11720944_at) / Fold change /veh RGS16 (11720944_at) / RFU, VPS4B / Fold change vs veh, VPS4B / RFU, CREB1 / Fold change vs veh, CREB1 / RFU, DNAJC13 / Fold change vs veh, DNAJC13 / RFU, GNAQ / Fold change vs veh, GNAQ / RFU, CDK5R1 / Fold change vs veh, CDK5R1 / RFU, ZRANB3 / Fold change vs veh, ZRANB3 / RFU, CUL4A / Fold change vs veh, CUL4A / RFU, CCNY / Fold change vs veh, CCNY / RFU, UFL1 / Fold change vs veh, UFL1 / RFU, COG3 / Fold change vs veh, COG3 / RFU, DIAPH2 / Fold change vs veh, DIAPH2 / RFU, SKA2 / Fold change vs veh, SKA2 / RFU, AFF3 / Fold change vs veh, AFF3 / RFU, LMF1 / Fold change vs veh, LMF1 / RFU, IPO11 / Fold change vs veh, IPO11 / RFU, DFFB / Fold change vs veh, DFFB / RFU, FOXP1 / Fold change vs veh, FOXP1 / RFU, CARD8 / Fold change vs veh, CARD8 / RFU, STRN3 / Fold change vs veh, STRN3 / RFU, ADK / Fold change vs veh, ADK / RFU, RASSF2 / Fold change vs veh, RASSF2 / RFU, WIPF1 / Fold change vs veh, WIPF1 / RFU, LARP1B / Fold change vs veh, LARP1B / RFU, RASA1 / Fold change vs veh, RASA1 / RFU, RB1 / Fold change vs veh, RB1 / RFU, PPFIA1 / Fold change vs veh, PPFIA1 / RFU, MAT2A / Fold change vs veh, MAT2A / RFU, CCT5 / Fold change vs veh, CCT5 / RFU, WDR92 / Fold change vs veh, WDR92 / RFU, CUX1 / Fold change vs veh, CUX1 / RFU, TTC7A / Fold change vs veh, TTC7A / RFU, TMEM135 / Fold change vs veh, TMEM135 / RFU, DEPTOR / Fold change vs veh, DEPTOR / RFU, CPM / Fold change vs veh, CPM / RFU, DNAJB6 / Fold change vs veh, DNAJB6 / RFU, CACNA2D3 / Fold change vs veh, CACNA2D3 / RFU, DTX4 / Fold change vs veh, DTX4 / RFU, TFCP2 / Fold change vs veh, TFCP2 / RFU, GMCL1 /// GMCL1P1 / Fold change vs veh, GMCL1 /// GMCL1P1 / RFU, AEBP2 / Fold change vs veh, AEBP2 / RFU, SNHG1 /// SNORD22 /// SNORD25 /// SNORD26 /// SNORD27 /// SNORD28 /// SNORD29 /// SNORD31 / Fold change vs veh, SNHG1 /// SNORD22 /// SNORD25 /// SNORD26 /// SNORD27 /// SNORD28 /// SNORD29 /// SNORD31 / Fold change (Aza/veh), C12orf56 (ProbeSet 11735607_a_at) / Fold change (ACY-1035/veh), C12orf56 (ProbeSet 11735607_a_at) / Fold change (Aza/veh), FGFR1OP (ProbeSet 11751329_s_at) / Fold change (ACY-1035/veh), FGFR1OP (ProbeSet 11751329_s_at) / Fold change (Aza/veh), VPS36 (ProbeSet 11739960_a_at) / Fold change (ACY-1035/veh), VPS36 (ProbeSet 11739960_a_at) / RFU SYPL1 (11715823_x_at) / Fold change /veh SYPL1 (11715823_x_at) / RFU IGFBP7 (11715501_s_at) / Fold change /veh IGFBP7 (11715501_s_at) / RFU REEP3 (11722064_at) / Fold change /veh REEP3 (11722064_at) / RFU IGLL1 (11728026_x_at) / Fold change /veh IGLL1 (11728026_x_at): dose or concentration left out as unconfirmed
Settings: ProbeSet 11721559_s_at; LIST B

Compound: Nc1ncn([C@@H]2O[C@H](CO)[C@@H](O)[C@H]2O)c(=O)n1 [azacitidine]
- Fold change vs veh, ZNF638 /// ZNF638-IT1: 0.91
